Measurements as given in article PMC11904993, “Humanized Candida and NanoBiT Assays Expedite Discovery of Bdf1 Bromodomain Inhibitors With Antifungal Potential” (Advanced Science, 2025).
Where “and” joins values, the source holds several entries; their conditions need not be identical. Equal entries are not always repeated. Where two headings read alike, the source gives them in different places.

What was measured:
[1] = tested on: C. glabrata strains (WT, pdr1∆ or PDR1 rescue); assay: Growth assays to assess compound efflux; assay type: cell-based; conditions: for growth relative to Solvent = 100 (Figure S10B): compound 50 µM; for growth relative to Solvent = 100 (Figure S10B) / growth (Figure S10A): three replicates
Experimental: Cells from a single colony were diluted in 0.85% NaCl before being counted using a Neubauer chamber. […] The effect of fluconazole was tested by titration on these strains under similar conditions.

[2] = tested on: C. glabrata strains expressing WT and mutant Bdf1; assay: Growth inhibition in liquid media, C. glabrata lab strains; conditions: Exp 1-3; for OD at 600 nm: Figure S9A
Experimental: (§1) Growth on Liquid Media with C. glabrata Lab Strains: Cells were grown at 30 °C in SC+M+C‐U medium (SC medium with 5 mM methionine, 0.25 mM cysteine, without uracil) to an OD600 of 0.5–0.8. […] Plates were incubated at 30 °C and OD600 was measured using a Multiskan FC Microplate Photometer (Thermo Fisher).

[3] = tested on: C. glabrata expressing humanized Bdf1 (Brd4 BDs); assay: Growth inhibition in liquid media, humanized C. glabrata strains; conditions: Fig 3E, 50 µM, Exp 1-3
Experimental: as §1

CgBdf1 BD1 [4] = target: CgBdf1 BD1 (Candida glabrata, UniProt Q6FWV7); assay: HTRF assay, inhibition of H4ac4 peptide binding; parameters: species or system C. glabrata; conditions: for IC50: Table S4
CgBdf1 BD2 [5] = target: CgBdf1 BD2 (Candida glabrata, UniProt Q6FWV7); assay: biochemical; assay type: binding, C. glabrata
human Brd4 BD1 = human Brd4 BD1 (Homo sapiens, UniProt O60885); assay: HTRF assay, inhibition of H4ac4 peptide binding; conditions: for %HTRF Signal: Exp1-3
human Brd4 BD2 = target: T1, human Brd4 BD2 (Homo sapiens, UniProt O60885); assay: HTRF assay, inhibition of H4ac4 peptide binding; conditions: hBrd4 BD2; for %HTRF Signal: Exp1-3
T1 construct: GST‐tagged BD2 (residues 349–460) from human Brd4 (UniProt ID O60885); purchased Reaction Biology Corp

CgBdf1 BD1 [6] = assay: Histone peptide array assay; conditions: peptide array signal
Experimental: (§2) The array was prepared as described in the manufacturer's instructions. […] The array was then washed three times with binding buffer. Anti‐GST antibody (GE Healthcare) was used for the detection of GST‐tagged bromodomains.

CgBdf1 BD2 [7] = assay: Histone peptide array assay; conditions: peptide array signal
Experimental: as §2

[8] = Fig 1D/2A original data, single experiments Exp1-3

Chain of CgBdf1 BD1 (Candida glabrata, UniProt Q6FWV7) (Q6FWV7 entry or part of it): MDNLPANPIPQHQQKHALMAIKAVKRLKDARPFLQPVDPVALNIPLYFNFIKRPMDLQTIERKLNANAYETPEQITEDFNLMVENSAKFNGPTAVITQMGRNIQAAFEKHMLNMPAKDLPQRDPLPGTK
Chain of CgBdf1 BD2 (Candida glabrata, UniProt Q6FWV7) (Q6FWV7 entry or part of it): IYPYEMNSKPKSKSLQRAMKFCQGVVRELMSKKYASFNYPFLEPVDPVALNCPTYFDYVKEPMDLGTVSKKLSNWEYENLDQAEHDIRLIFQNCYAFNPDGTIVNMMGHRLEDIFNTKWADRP

Q: What does the source list for `CCNC(=O)c1cc2c(-c3cc(C(C)(C)O)ccc3Oc3c(C)cc(F)cc3C)cn(C)c(=O)c2[nH]1` [ABBV744]?
A: growth relative to Solvent = 100 (Figure S10B) ([1]; PDR1 Rescue): 73.7317 and 83.5862 and 73.3043; growth relative to Solvent = 100 (Figure S10B) ([1]; WT): 66.394 and 67.598 and 72.0455; growth relative to Solvent = 100 (Figure S10B) ([1]; pdr1∆): 59.2642 and 64.761 and 73.9837; %Growth ([2]; Fig 3E, 50 µM, WT BDF1-flag): 90% and 89% and 91%; %Growth ([3]; BDF1-hBD1-flag): 90% and 85% and 80%; %Growth ([3]; BDF1-hBD2-flag): 38% and 32% and 37%; %Growth ([3]; humanized BDF1-flag): 41% and 39%

Q: What does the source list for `Cn1nccc1C(=O)NCc1ccc(-c2nc(-c3cccs3)no2)s1` [Compound 63]?
A: %HTRF Signal (CgBdf1 BD1 [4]): 92.96% and 94.93% and 114.99%; %HTRF Signal (CgBdf1 BD1 [4]; CgBD1, compound 2.10 nM, Exp1-3): 89.22% and 91.15% and 92.46%; %HTRF Signal (CgBdf1 BD1 [4]; CgBD1, compound 13.11 nM, Exp1-3): 137.24% and 96.18% and 98.59%; %HTRF Signal (CgBdf1 BD1 [4]; CgBD1, compound 32.77 nM, Exp1-3): 89.47% and 88.02% and 93.78%; %HTRF Signal (CgBdf1 BD1 [4]; CgBD1, compound 81.92 nM, Exp1-3): 87.12% and 79.28% and 89.90%; %HTRF Signal (CgBdf1 BD1 [4]; CgBD1, compound 204.8 nM, Exp1-3): 79.54% and 70.30% and 76.77%; %HTRF Signal (CgBdf1 BD1 [4]; CgBD1, compound 512 nM, Exp1-3): 60.42% and 54.51% and 55.50%; %HTRF Signal (CgBdf1 BD1 [4]; CgBD1, compound 1280 nM, Exp1-3): 88.32% and 78.12% and 81.58%; %HTRF Signal (CgBdf1 BD1 [4]; CgBD1, compound 3200 nM, Exp1-3): 43.73% and 36.43% and 36.08%; %HTRF Signal (CgBdf1 BD1 [4]; CgBD1, compound 8000 nM, Exp1-3): 32.25% and 38.09% and 29.97%; %HTRF Signal (CgBdf1 BD1 [4]; CgBD1, compound 20000 nM, Exp1-3): 23.85% and 25.61% and 19.76%; IC50 (CgBdf1 BD1 [4]; CgBD1, individual experiments Exp1-3, read-out: IC50): 620 nM and 710 nM and 500 nM; pIC50 CgBD1 (CgBdf1 BD1 [4]; [8]): 6.209 and 6.147 and 6.298; IC50 (CgBdf1 BD1 [4]; means ± SD, n=3, read-out: IC50 CgBD1): 610 ± 100 nM; %HTRF Signal (CgBdf1 BD2 [5]): 91.88% and 95.70% and 106.64%; pIC50 CgBD2 (CgBdf1 BD2 [5]): ≤ 4; %HTRF Signal (CgBdf1 BD2 [5]; CgBD2, compound 2.10 nM, Exp1-3): 86.71% and 109.56% and 96.63%; %HTRF Signal (CgBdf1 BD2 [5]; CgBD2, compound 13.11 nM, Exp1-3): 107.12% and 98.52% and 93.70%; %HTRF Signal (CgBdf1 BD2 [5]; CgBD2, compound 32.77 nM, Exp1-3): 87.98% and 111.39% and 100.52%; %HTRF Signal (CgBdf1 BD2 [5]; CgBD2, compound 81.92 nM, Exp1-3): 93.69% and 107.27% and 99.37%; %HTRF Signal (CgBdf1 BD2 [5]; CgBD2, compound 204.8 nM, Exp1-3): 87.47% and 98.47% and 101.59%; %HTRF Signal (CgBdf1 BD2 [5]; CgBD2, compound 512 nM, Exp1-3): 94.84% and 95.89% and 102.41%; %HTRF Signal (CgBdf1 BD2 [5]; CgBD2, compound 1280 nM, Exp1-3): 108.51% and 97.41% and 103.91%; %HTRF Signal (CgBdf1 BD2 [5]; CgBD2, compound 3200 nM, Exp1-3): 96.71% and 89.90% and 106.57%; %HTRF Signal (CgBdf1 BD2 [5]; CgBD2, compound 8000 nM, Exp1-3): 101.27% and 103.49% and 103.29%; %HTRF Signal (CgBdf1 BD2 [5]; CgBD2, compound 20000 nM, Exp1-3): 98.71% and 85.34% and 94.42%; IC50 (CgBdf1 BD2 [5]; CgBD2, individual experiments Exp1-3, Table S4, read-out: IC50): > 20 µM; pIC50 hBrd4 BD1 (human Brd4 BD1; [8]): 4.548 and 4.767 and 4.490; IC50 (human Brd4 BD1; Table S3, estimate, preliminary single-replicate HTRF assay, read-out: IC50 Brd4 BD1): > 20 µM; IC50 (human Brd4 BD1; Table S4, means ± SD, n=3, read-out: IC50 hBrd4 BD1): 25.9 ± 7.9 µM; %HTRF Signal (human Brd4 BD1; hBrd4 BD1, compound 2.10 nM): 98.36% and 97.75% and 98.52%; %HTRF Signal (human Brd4 BD1; hBrd4 BD1, compound 5.24 nM): 96.44% and 101.52% and 99.57%; %HTRF Signal (human Brd4 BD1; hBrd4 BD1, compound 13.11 nM): 96.19% and 93.70% and 100.56%; %HTRF Signal (human Brd4 BD1; hBrd4 BD1, compound 32.77 nM): 100.99% and 95.89% and 96.28%; %HTRF Signal (human Brd4 BD1; hBrd4 BD1, compound 81.92 nM): 95.84% and 103.64% and 102.41%; %HTRF Signal (human Brd4 BD1; hBrd4 BD1, compound 204.8 nM): 99.83% and 98.50% and 97.67%; %HTRF Signal (human Brd4 BD1; hBrd4 BD1, compound 512 nM): 96.60% and 93.56% and 96.36%; %HTRF Signal (human Brd4 BD1; hBrd4 BD1, compound 1280 nM): 82.33% and 98.72% and 104.43%; %HTRF Signal (human Brd4 BD1; hBrd4 BD1, compound 3200 nM): 94.57% and 92.75% and 93.44%; %HTRF Signal (human Brd4 BD1; hBrd4 BD1, compound 8000 nM): 83.80% and 81.87% and 89.53%; %HTRF Signal (human Brd4 BD1; hBrd4 BD1, compound 20000 nM): 44.73% and 68.85% and 53.13%; IC50 (human Brd4 BD1; hBrd4 BD1, individual experiments Exp1-3, Table S4, read-out: IC50): 17.1 µM and 32.4 µM and 28.3 µM; %HTRF Signal (human Brd4 BD2; compound 2.10 nM): 99.18% and 94.17% and 90.64%; %HTRF Signal (human Brd4 BD2; compound 5.24 nM): 99.39% and 99.07% and 97.43%; %HTRF Signal (human Brd4 BD2; compound 13.11 nM): 98.29% and 101.48% and 93.41%; %HTRF Signal (human Brd4 BD2; compound 32.77 nM): 93.01% and 99.51% and 101.32%; %HTRF Signal (human Brd4 BD2; compound 81.92 nM): 102.00% and 98.93% and 106.04%; %HTRF Signal (human Brd4 BD2; compound 204.8 nM): 100.03% and 105.21% and 104.21%; %HTRF Signal (human Brd4 BD2; compound 512 nM): 98.01% and 98.41% and 97.72%; %HTRF Signal (human Brd4 BD2; compound 1280 nM): 99.07% and 96.81% and 100.81%; %HTRF Signal (human Brd4 BD2; compound 3200 nM): 102.84% and 98.87% and 104.55%; %HTRF Signal (human Brd4 BD2; compound 8000 nM): 108.22% and 84.57% and 107.59%; %HTRF Signal (human Brd4 BD2; compound 20000 nM): 102.02% and 76.14% and 105.57%; IC50 (human Brd4 BD2; individual experiments Exp1-3, Table S4, read-out: IC50): > 20 µM (2×) and 29.2 µM; Raw data, WT (CgBdf1 BD1 [6]; CgBdf1 BD1 WT, first replicate column): 0.003151; Normalized (0 to 100%), WT (CgBdf1 BD1 [6]; CgBdf1 BD1 WT, mean of the two raw values): 1.81%; Raw data, WT (CgBdf1 BD1 [6]; CgBdf1 BD1 WT, second replicate column): 0.03308; Raw data, YF mutant (CgBdf1 BD1 [6]; CgBdf1 BD1 YF mutant, first replicate column): 0.001234; Normalized (0 to 100%), YF mutant (CgBdf1 BD1 [6]; CgBdf1 BD1 YF mutant, mean of the two raw values): 0.216%; Raw data, YF mutant (CgBdf1 BD1 [6]; CgBdf1 BD1 YF mutant, second replicate column): 0.003085; Raw data, WT (CgBdf1 BD2 [7]; CgBdf1 BD2 WT, first replicate column): 0.004055; Normalized (0 to 100%), WT (CgBdf1 BD2 [7]; CgBdf1 BD2 WT, mean of the two raw values): 0.593%; Raw data, WT (CgBdf1 BD2 [7]; CgBdf1 BD2 WT, second replicate column): 0.007798; Raw data, YF mutant (CgBdf1 BD2 [7]; CgBdf1 BD2 YF mutant, first replicate column): 0.009509; Normalized (0 to 100%), YF mutant (CgBdf1 BD2 [7]; CgBdf1 BD2 YF mutant, mean of the two raw values): 0.675%; Raw data, YF mutant (CgBdf1 BD2 [7]; CgBdf1 BD2 YF mutant, second replicate column): 0.003988; OD at 600 nm ([2]; WT BDF1 strain): 0.4973 and 0.4763 and 0.4793; OD at 600 nm ([2]; bdf1-bd1Δ strain): 0.2357 and 0.2187 and 0.2437; OD at 600 nm ([2]; bdf1-bd2Δ strain): 0.1390 and 0.1480 and 0.1420

Q: `OC(Cn1cncn1)(Cn1cncn1)c1ccc(F)cc1F` [fluconazole] was tested. Which “growth (Figure S10A)” value ([1]; Cg101 pdr1Δ mut, Fluconazole 0.5 µg/mL) did it give?
A: The value was 21% and 19% and 15%.

Q: And the “growth (Figure S10A)” value ([1]; Cg101 pdr1Δ mut, Fluconazole 1 µg/mL)?
A: Its value is 12% and 11% and 6%.

Q: And the “growth (Figure S10A)” value ([1]; Cg101 pdr1Δ mut, Fluconazole 2 µg/mL)?
A: The value was 6% (2×) and 2%.

Q: And the “growth (Figure S10A)” value ([1]; Cg101 pdr1Δ mut, Fluconazole 4 µg/mL)?
A: Its value is 6% and 3% and 2%.

Q: And the “growth (Figure S10A)” value ([1]; Cg102 pdr1 rescue, Fluconazole 0.5 µg/mL)?
A: Its value is 55% and 61% and 53%.

Q: And the “growth (Figure S10A)” value ([1]; Cg102 pdr1 rescue, Fluconazole 1 µg/mL)?
A: Its value is 36% and 35% and 25%.

Q: And the “growth (Figure S10A)” value ([1]; Cg102 pdr1 rescue, Fluconazole 2 µg/mL)?
A: The value was 14% and 19% and 18%.

Q: And the “growth (Figure S10A)” value ([1]; Cg102 pdr1 rescue, Fluconazole 4 µg/mL)?
A: The value was 5% and 9% and 6%.

Q: And the “growth (Figure S10A)” value ([1]; Cg103 PDR1 WT, Fluconazole 0.5 µg/mL)?
A: Its value is 57% and 60% and 48%.

Q: And the “growth (Figure S10A)” value ([1]; Cg103 PDR1 WT, Fluconazole 1 µg/mL)?
A: Its value is 24% (2×) and 33%.

Q: What about the “growth (Figure S10A)” value ([1]; Cg103 PDR1 WT, Fluconazole 2 µg/mL) of the same compound?
A: Its value is 13% and 12% and 14%.

Q: And the “growth (Figure S10A)” value ([1]; Cg103 PDR1 WT, Fluconazole 4 µg/mL)?
A: The value was 6% and 5% (2×).

Q: And the “sensitivity upon deletion of PDR1” value ([1]; titration, pdr1Δ versus WT and rescue strains)?
A: The value was “enhanced”.
